In assay [1] the test system is Anura. The assay is described as follows: Displacement of (-)-[3H]alprenolol from adrenergic receptor purified from frog erythrocytes relative to isoproterenol.
Assay [2] has as its system Anura. As to the kind of experiment: Displacement of (-)-[3H]alprenolol from adrenergic receptor purified from frog erythrocytes.

A value given as a limit tells only on which side of the number the result lay.

In the assay on Anura [1], `CC(C)(Cc1ccccc1)NCC(O)c1ccc(O)c(NS(C)(=O)=O)c1` (centres undefined) came in with an Intrinsic activity of 0.27. In addition, the negative logarithm of the Kb (pKb) with Anura [2] was found to be 7.85.
Regarding `CNCC(O)c1cccc(O)c1` (centres undefined), the pKb in the assay on Anura [2] turned out to be 4.28.
On the same count and under the same terms, the value for `CNCC(O)c1cccc(NS(C)(=O)=O)c1` (centres undefined) was 4.19; that for `NCC(O)c1ccc(O)cc1` (centres undefined) was less than 3.7.
The molecule `CC(N)C(O)c1ccc(O)c(O)c1` (centres undefined) came in with an Intrinsic activity with Anura [1] of 0.87. The pKb in the assay on Anura [2] amounted to 4.55.
Turning to `CC(NCCc1ccc(O)cc1)C(O)c1ccc(O)cc1` (centres undefined), the pKb in the assay on Anura [2] is 5.06.
The same measure, in the same setting: next, `CC(N)C(O)c1cccc(O)c1` (centres undefined): 4.46.
Regarding `CC(CCc1ccccc1)NC(C)C(O)c1ccc(O)cc1` (centres undefined), in the assay on Anura [2], the pKb was 6.74.
The same measure, in the same setting: next, `NCCc1ccccc1`: 3.7.
As for `Oc1ccc(CCCNCCc2ccc(O)c(O)c2)cc1`, the Intrinsic activity in the assay with Anura [1] was 0.17. The pKb in the assay on Anura [2] is 4.64.
On to `CNC(C)C(O)c1ccccc1` (centres undefined), for which, in the assay with Anura [2], the pKb worked out at 5.04.
Take `CC(CCc1ccc(O)cc1)NCCc1ccc(O)c(O)c1` (centres undefined): the Intrinsic activity in the assay on Anura [1] amounted to 0.25. Further, in the assay with Anura [2], the pKb came to 4.62.
Consider `CC(Cc1ccc(O)cc1)NCC(O)c1ccc(O)c(O)c1` (centres undefined), for which, in the assay with Anura [1], the Intrinsic activity worked out at 1.1. The same molecule displayed a negative-log Kb (pKb) in the assay on Anura [2] of 6.17.
Turning to `Oc1ccc(CCNCCc2ccc(O)c(O)c2)cc1`, the Intrinsic activity in the assay with Anura [1] turned out to be 0.25. The same molecule yielded a pKb with Anura [2] of 4.33.
In the assay on Anura [2], `CCNCC(O)c1cccc(O)c1` (centres undefined) showed a pKb of 4.66.
Still for that read-out and setting: the value for `NCC(O)c1cccc(Cl)c1` (centres undefined) was 4.08; that for `NC(CCO)C(O)c1ccccc1` (centres undefined) was 4.29.
With `CCC(NC1CCCC1)C(O)c1ccc(O)c(O)c1` (centres undefined), in the assay on Anura [1], the Intrinsic activity came to 0.64. Moreover, the pKb in the assay with Anura [2] is 4.41.
In the assay with Anura [2], `COc1cccc(C(O)C(C)NC(C)C)c1` (centres undefined) yielded a pKb of 5.11.
In the assay on Anura [2], `CC(COc1ccccc1)NC(C)C(O)c1ccc(O)cc1` (centres undefined) gave a negative logarithm of the Kb (pKb) of 5.85.
In the case of `NCCc1ccc(O)c(O)c1`, the pKb with Anura [2] is less than 3.7.
On the same count and under the same terms, next, `CC(COc1ccccc1)NC(C)C(O)c1ccc(O)c(CS(=O)(=O)N(C)C)c1` (centres undefined): 7.12.
Molecule `CCC(N)C(O)c1ccc(O)c(O)c1` (centres undefined) had an Intrinsic activity with Anura [1] of 0.71. Moreover, in the assay on Anura [2], the negative-log Kb (pKb) amounted to 4.74.
With `CC(Cc1ccc2c(c1)OCO2)NCC(O)c1ccc(O)c(O)c1` (centres undefined), in the assay with Anura [1], the Intrinsic activity is 1.1. The negative-log Kb (pKb) in the assay on Anura [2] is 6.17.
Take `NCCc1ccc(O)cc1`: in the assay with Anura [2], the pKb is less than 3.7.
In turn, `CC(C)(Cc1ccc(O)cc1)NCC(O)c1ccc(O)c(O)c1` (centres undefined) registered an Intrinsic activity with Anura [1] of 1.2. In the assay on Anura [2], this molecule showed a pKb of 7.22.
In turn, `NC[C@H](O)c1ccc(O)c(O)c1` came in with a pKb in the assay with Anura [2] of less than 3.7.
`CNC[C@H](O)c1ccc(O)c(O)c1` displayed an Intrinsic activity in the assay with Anura [1] of 0.75. This molecule registered a pKb in the assay with Anura [2] of 5.07.

By pKb is commonly meant −log10 of the Kb, conventionally taken in molar units. Read a high pKb as a low Kb.

For the origin of these results see ChEMBL document CHEMBL3244136, “Structure-activity study of beta-adrenergic agents using the SIMCA method of pattern recognition” (J Med Chem, 1978).
